Results from the CheMixHub viscosity set.

Test: xn = mol fraction of the nth substance listed

CCCCCCCCCCCCCC + CCCCCCCC
viscosity [mPa·s]
Conditions	x1 = 0.1504	x1 = 0.3504	x1 = 0.4999	x1 = 0.6485	x1 = 0.8475	x2 = 0.367	x2 = 0.635	x2 = 0.839
293.15 K, 101.33 kPa	–	–	–	–	–	1.501	1.003	0.753
303.16 K, 101.3 kPa	0.6303	0.8589	1.056	1.276	1.612	–	–	–
308.16 K, 101.3 kPa	0.5925	0.8026	0.9789	1.176	1.476	–	–	–

CCCCCO + CCCCCCCC
viscosity [mPa·s], 101 kPa
Conditions	298.15 K	318.15 K
x1 = 0.0618	0.537	0.426
x1 = 0.1297	0.57	0.449
x1 = 0.2063	0.617	0.484
x1 = 0.2744	0.671	0.517
x1 = 0.3509	0.749	0.57
x1 = 0.5159	1.007	0.72
x1 = 0.5831	1.166	0.813
x1 = 0.6979	1.536	1.025
x1 = 0.8127	2.072	1.298
x1 = 0.9043	2.694	1.611
x1 = 0.952	3.056	1.814

CC12CC3CC(C)(C1)CC(C)(C3)C2 + CCCCCCCCC
viscosity [mPa·s], 100 kPa
Conditions	x1 = 0.1012	x1 = 0.2132	x1 = 0.3009	x1 = 0.3978	x1 = 0.4998	x1 = 0.6007	x1 = 0.6969	x1 = 0.7984	x1 = 0.8985
293.15 K	0.831	0.936	1.021	1.11	1.231	1.395	1.593	1.852	2.201
298.15 K	0.775	0.87	0.95	1.028	1.135	1.282	1.458	1.685	1.995
303.15 K	0.726	0.812	0.883	0.952	1.052	1.183	1.342	1.544	1.818
308.15 K	0.682	0.76	0.825	0.889	0.978	1.095	1.238	1.418	1.662
313.15 K	0.639	0.711	0.771	0.831	0.914	1.022	1.147	1.309	1.526
318.15 K	0.603	0.67	0.724	0.781	0.859	0.954	1.067	1.212	1.408
323.15 K	0.569	0.633	0.681	0.737	0.807	0.894	0.996	1.13	1.304

CCCCCCCC + CCCCCCCCCC
viscosity [mPa·s]
Conditions	297.95 K	298.15 K	313.05 K
101 kPa, x1 = 0.1384	0.8136	–	0.6803
101 kPa, x1 = 0.2144	0.7783	–	0.6439
101 kPa, x1 = 0.3015	0.7465	–	0.6261
101 kPa, x1 = 0.3894	0.6993	–	0.5975
101 kPa, x1 = 0.452	0.6767	–	0.5817
101 kPa, x1 = 0.601	0.6312	–	0.5417
101 kPa, x1 = 0.6988	0.5898	–	0.5129
101 kPa, x1 = 0.8208	0.5543	–	0.4761
101 kPa, x1 = 0.8858	0.5327	–	0.4643
101.33 kPa, x1 = 0.1059	–	0.8166	–
101.33 kPa, x1 = 0.2142	–	0.7747	–
101.33 kPa, x1 = 0.3038	–	0.7382	–
101.33 kPa, x1 = 0.4052	–	0.6937	–
101.33 kPa, x1 = 0.5057	–	0.6694	–
101.33 kPa, x1 = 0.6061	–	0.6305	–
101.33 kPa, x1 = 0.7032	–	0.6018	–
101.33 kPa, x1 = 0.8002	–	0.5722	–
101.33 kPa, x1 = 0.9058	–	0.5366	–

c1ccccc1 + CCCCCCCCCC
Conditions	viscosity [mPa·s]
298 K, 101 kPa, x1 = 0.5	0.6712
298.15 K, 101.33 kPa, x2 = 0.03584	0.6003
298.15 K, 101.33 kPa, x2 = 0.1004	0.5986
298.15 K, 101.33 kPa, x2 = 0.2013	0.6012
298.15 K, 101.33 kPa, x2 = 0.2902	0.613
298.15 K, 101.33 kPa, x2 = 0.3988	0.6372
298.15 K, 101.33 kPa, x2 = 0.5	0.6648
298.15 K, 101.33 kPa, x2 = 0.5943	0.6949
298.15 K, 101.33 kPa, x2 = 0.7021	0.7313
298.15 K, 101.33 kPa, x2 = 0.8353	0.7784
298.15 K, 101.33 kPa, x2 = 0.9165	0.8085
318 K, 101 kPa, x1 = 0.5	0.5262
